Laboratory results taken from patent US6022859A, “Inhibitors of β-amyloid toxicity” (Wisconsin Alumni Research Foundation, priority 1997, dated 2000).
Where a SMILES comes first, the peptide text is derived from it. Where no end group is shown, it is not given here. [ ]: non-standard residue; d: D form. Ahx = NCCCCCC(=O)O

Experiments:
Aβ [1] = settings: literature, cited from earlier work
[2] = Solubility of test peptides (Table 1; PBSA); settings: for Soluble: Table 1
Protocol: (§4) The solubility and aggregation properties of the test peptides were assessed by visual observation, analytical ultracentrifugation, and/or dynamic light scattering.

Aβ toxicity = settings: literature; cited from earlier work
[3] = Self-aggregation of test peptides alone (sedimentation equilibrium ultracentrifugation, dynamic light scattering, visual observation); format: physicochemical; settings: peptide alone
Protocol: as §4

[4] = Circular dichroism spectroscopy, secondary structure of peptide alone; format: physicochemical; settings: phosphate buffer (0.1 M, pH 7.4)
Protocol: (§1) β(1-39), 15-25-K6, or a mixture of β(1-39) and 15-25-K6 (1:2 molar ratio) were dissolved in 0.01 M phosphate buffer, pH 7.2. The final concentration was 0.5 mg/ml for each peptide. The solution was passed through a 0.45 μm Millipore (Bedford, Mass.) filter to remove dust and then degassed. Circular dichroism spectra in the far UV (190-240 nm) were obtained using a modified Cary Model 60 spectropolarimeter (On-line Instrument Systems, Bogart, Calif.) and analyzed for secondary structure as described (Shen, C.-L., et al., Biophys. J. 65:2383-2395, 1993).
(§2) Circular dichroism spectra of Aβ(1-39) and 15-25-K6 in phosphate buffer (0.1 M. pH 7.4) were collected and quantitatively analyzed for secondary structure. Aβ(1-39) was 65% β-sheet and 30% random coil (spectra not shown), in line with previous measurements (Shen, C.-L., et al., supra, 1994). The secondary structure of 15-25-K6 was essentially the same (64% Aβ-sheet, 36% random coil, data not shown).

Aβ(1-39) [5] = molecular target: T1, Aβ(1-39) (Homo sapiens, UniProt P05067); experiment: Circular dichroism spectroscopy, effect of peptide on Aβ(1-39) spectra; format: biochemical; settings: Aβ(1-39):peptide 1:2 molar ratio
T1 construct: A peptide homologous to the first 39 residues of Aβ, Aβ(1-39), was purchased from AnaSpec, Inc; purchased AnaSpec, Inc. (San Jose, Calif.)
Protocol: as §1, §2

Aβ(1-39) [6] = molecular target: T1, Aβ(1-39); experiment: Dynamic light scattering, Aβ(1-39) aggregation kinetics; format: biochemical; settings: Aβ 0.5 mg/ml, peptide:Aβ molar ratio 2:1
Protocol: Lyophilized Aβ(1-39) was solubilized in 0.1% TFA at 10 mg/ml, then diluted twenty-fold into PBSA or into PBSA containing the test peptide. PBSA was double-filtered through a 0.22 μm filter prior to use. pH was adjusted to 7.4 with 0.5 N NaOH, then the sample was immediately filtered through a 0.45 μm filter directly into a clean light scattering cuvette. In all cases Aβ(1-39) concentration was 0.5 mg/ml and the molar ratio of test peptide to Aβ was 2:1 unless otherwise indicated. Autocorrelation functions at 90° scattering angle were collected as described previously (Shen, et al., 1994, supra). Data were fit using the method of cumulants to derive and apparent hydrodynamic radius.
The effect of the test peptides on aggregation kinetics of Aβ(1-39) was assessed by dynamic light scattering (FIG. 1). FIG. 1 graphs the effect of recognition and hybrid peptides on Aβ aggregation kinetics. Final Aβ concentration was 0.5 mg/ml, Aβ:peptide molar ratio was 1:2 except where indicated. The hydrodynamic radius (measured at a 90° scattering angle) was measured as a function of time.

Aβ(1-39) [7] = molecular target: T1, Aβ(1-39); experiment: Static light scattering, Aβ(1-39) aggregate molecular weight and morphology (Kratky plot); format: biochemical; settings: peptide:Aβ 2:1 (16-20-K6 1:2)
Protocol: Solutions of Aβ(1-39) alone or with test peptide at a 2:1 peptide:Aβ molar ratio were prepared as described above. Solutions were incubated at room temperature for 24 hours, after which scattered intensity data as a function of angle were collected and analyzed as described elsewhere (Shen, C.-L. and Murphy, Biophys. J., 1995, supra).
The effect of the test peptide on aggregate size and morphology was probed with static light scattering. […] Thus, the average molecular weight of Aβ(1-39) aggregates was not dramatically affected by any of the peptides tested.
A convenient tool for abstracting particle shape information from angular dependence data is the so-called Kratky plot. FIGS. 2A and B are Kratky plots of Aβ-peptide solutions. Aβ(1-39) was co-incubated with recognition (A) or hybrid (B) peptides for 24 hours, after which SLS data were collected, analyzed, and plotted as Kratky plots. In all cases, Aβ(1-39) concentration was 0.5 mg/ml and the peptide:Aβ molar ratio was 2:1, except for 16-20-K6 for which the molar ratio was lowered to 1:2. In FIG. 2, q is the scattering vector, which is related to the scattering angle, R is the Rayleigh ratio, a function of the scattering intensity, c is the concentration, and K is an instrument constant. Referring to FIG. 2A, the rising curves with an intermediate plateau are characteristic of semiflexible linear chains. […]

Aβ(1-39) [8] = molecular target: T1, Aβ(1-39); experiment: ThT fluorescence spectroscopy with Aβ(1-39); format: biochemical; settings: one week incubation at room temperature
Protocol: A few samples used for cellular toxicity assays were tested for ThT fluorescence after one week aging and prior to dilution into cell culture medium. ThT (Sigma, St. Louis, Mo.) was dissolved at 100 μM in PBSA. Forty μl peptide solution and 40 μl ThT stock solution were mixed with 920 μl PBSA and briefly vortexed. Fluorescence emission spectra were taken using a Model M-3 Alphascan (Photon Technology International, South Brunswick, N.J.) spectrofluorimeter, with excitation at 450 nm. An increase in fluorescence with a maximum at 482 nm is indicative of amyloid (LeVine, H. Protein Sci. 2:404-410, 1993). Fluorescence intensity for diluted ThT in the absence of peptide was determined and subtracted from sample intensities. ThT fluorescence intensity was measured for Aβ-amyloid(1-39) alone or mixed with 18-25 or 15-25-K6 after one week incubation at room temperature. Samples were diluted 25-fold just prior to measurement. […] Because 16-25 was not soluble in PBS, the assay could not be repeated in a like manner for that peptide; however, a parallel experiment was conducted by dissolution of 16-25 or 18-25 into 35% ACN/TFA followed by mixing with Aβ(1-39) and dilution into PBS.

Aβ(25-35) = molecular target: T2, Aβ(25-35) (Homo sapiens, UniProt P05067); experiment: ThT fluorescence spectroscopy with Aβ(25-35); format: biochemical; settings: mixed with Aβ(25-35)
T2 construct: A peptide homologous to the 25-35 residues of Aβ, Aβ(25-35), was purchased from Sigma; purchased Sigma (St. Louis, Mo.)

Aβ(1-39) [9] = molecular target: T1, Aβ(1-39); experiment: Electron microscopy of Aβ(1-39) fibrils; format: biochemical; settings: aged approximately one week
Protocol: Solutions of Aβ(1-39) alone (0.5 mg/ml) or with 1 mg/ml 15-25-K6 were prepared as described above and aged at room temperature for approximately one week. A drop of the peptide solution was placed on a Pioloform coated 300 mesh electron microscope copper grid. After blotting, a drop of 1% ammonium molybdate was placed on the grid while being held with fine forceps. The grid was blotted on filter paper and allowed to dry before observing the specimen in a JEOL (Peabody, Mass.) 100 CX Electron Microscope at 60 kV. To further examine the aggregates, electron micrographs were taken. FIG. 3A and B are electron micrographs of (A) Aβ(1-39) alone and (B) Aβ(1-39) with 15-25-K6. Magnification is 72,500x.

PC-12 cells [10] = experiment: Cellular toxicity (MTT assay): protection from Aβ(1-39) toxicity; format: cell-based; settings: both molar ratios tested (2:1 and 1:1)
Protocol: (§3) Solutions of recognition or hybrid peptides were prepared by direct dissolution of lyophilized peptide into sterile PBS (with antibiotics). Aβ(1-39) was dissolved in 0.1% TFA at 10 mg/ml, then diluted twenty-fold into sterile PBS (with antibiotics) or PBS containing the hybrid or recognition peptides. Solutions were prepared at 2:1 or 1:1 peptide:Aβ molar ratio. The samples were incubated at room temperature for 7 days, then diluted five-fold with medium and incubated for one day. As a control, PBS was diluted 5:1 with medium and added to some wells.
Freshly-prepared solutions of Aβ(1-39) were not toxic to the cells, consistent with other reports in the literature (Shearman, et al., supra). None of the test peptides alone were toxic. […] FIG. 4 graphs the effect of recognition and hybrid peptides on Aβ toxicity. Aβ(0.5 mg/ml) was incubated with the recognition peptide at a 1:2 Aβ:peptide molar ratio (A), or with the hybrid peptides at a 1:1 or 1:2 Aβ:peptide molar ratio (B), for one week, following which the solution was diluted five-fold and added to monolayer cultures of PC-12 cells. Cell viability was assessed with the MTT assay; results are reported relative to untreated wells. […] The ability of each peptide to protect cells from Aβ toxicity was assessed by a upper-tailed t-test; *, p<0.01; **, p<0.001.

PC-12 cells [11] = experiment: Cellular toxicity (MTT assay): effect on Aβ(25-35) toxicity; format: cell-based; settings: co-incubation with Aβ(25-35)
Protocol: as §3
15-25-K6 shares essentially no homology with Aβ(25-35), which also forms fibrillar aggregates and is toxic to cells. Aβ(25-35) decreased MTT reduction to 45% of controls; co-incubation of 15-25-K6 with Aβ(25-35) had no effect on the toxicity of Aβ(25-35).

Aβ [12] = molecular target: Aβ (Homo sapiens, UniProt P05067); settings: literature; cited from earlier work
Sequence of Aβ (Homo sapiens, UniProt P05067) (P05067 672-711 limits assumed): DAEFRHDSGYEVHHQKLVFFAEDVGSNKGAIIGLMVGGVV

T1 sequence (P05067 672-710): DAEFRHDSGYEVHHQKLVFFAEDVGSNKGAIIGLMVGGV

Molecule: QKLVTTAE [literature octapeptide with substitutions for the two Phe residues at positions 19 and 20]
- effect on Aβ fibril formation (Aβ [1]; 10-fold molar excess, electron microscopy): inhibited fibril formation

Molecule: VLFKF [16-20S, VLFKF]
- Soluble [2]: yes

Molecule: CCCCCCCCCCCCCCCC[N+]1(C)CCCCC1.[Br-] [hexadecyl-N-methylpiperidinium bromide]
- effect on Aβ aggregation / fibril formation (Aβ [1]): inhibits Aβ fibril formation

Molecule: OC[C@H]1O[C@@H]2O[C@H]3[C@H](O)[C@@H](O)[C@@H](O[C@H]4[C@H](O)[C@@H](O)[C@@H](O[C@H]5[C@H](O)[C@@H](O)[C@@H](O[C@H]6[C@H](O)[C@@H](O)[C@@H](O[C@H]7[C@H](O)[C@@H](O)[C@@H](O[C@H]8[C@H](O)[C@@H](O)[C@@H](O[C@H]1[C@H](O)[C@H]2O)O[C@@H]8CO)O[C@@H]7CO)O[C@@H]6CO)O[C@@H]5CO)O[C@@H]4CO)O[C@@H]3CO [β-Cyclodextrin]
- effect on Aβ toxicity (Aβ toxicity): partially reduces Aβ toxicity

Molecule: FAEDVGKKKKKK [20-25-K6, FAEDVGKKKKKK]
- solubility in PBSA [2]: readily soluble
- Soluble [2]: yes

Molecule: Nc1c(/N=N/c2ccc(-c3ccc(/N=N/c4cc(S(=O)(=O)O)c5ccccc5c4N)cc3)cc2)cc(S(=O)(=O)O)c2ccccc12 [Congo red]
- effect on Aβ aggregation / fibril formation (Aβ [1]): disrupt Aβ aggregation
- effect on Aβ toxicity (Aβ toxicity): reduce Aβ toxicity

Molecule: CC(C)C[C@H](NC(=O)[C@@H](N)CCCCN)C(=O)N[C@H](C(=O)N[C@@H](Cc1ccccc1)C(=O)O)C(C)C [16-19, KLVF] (H-KLVF-OH)
- Soluble [2]: yes

Molecule: FAEDVG [20-25, FAEDVG]
- Soluble [2]: yes

Molecule: CC(C)C[C@H](NC(=O)[C@@H](N)CCCCN)C(=O)N[C@H](C(=O)N[C@@H](Cc1ccccc1)C(=O)N[C@@H](Cc1ccccc1)C(=O)O)C(C)C [16-20, KLVFF]
- Soluble [2]: yes

Molecule: VFFAEDVG [18-25, VFFAEDVG]
- Soluble [2]: yes

Molecule: KLVFFKKKKKK [16-20-K6, KLVFFKKKKKK]
- solubility in PBSA [2]: readily soluble
- Soluble [2]: yes

Molecule: GQKLVFFAEDVGGaKKKKKK (GQKLVFFAEDVGG[Ahx]KKKKKK) [15-25-K6]
- aggregation state by sedimentation equilibrium ultracentrifugation [3]: monomeric
- random coil content [4]: 36%
- β-sheet content [4]: 64%
- effect on circular dichroism spectra of Aβ(1-39) (Aβ(1-39) [5]): did not significantly alter
- effect on Aβ aggregate size / growth rate (hydrodynamic radius vs time) (Aβ(1-39) [6]): dramatic increase
- increase in molecular weight of Aβ aggregates (Aβ(1-39) [7]; 24 hours after mixing): 2-2.5 fold
- effect on Aβ(1-39) aggregate shape / morphology (Kratky plot) (Aβ(1-39) [7]; 24 hours co-incubation): greatest effect on the particle shape
- effect on ThT fluorescence intensity of Aβ(1-39) (Aβ(1-39) [8]): reduced the ThT fluorescence intensity of Aβ(1-39) somewhat
- effect on ThT fluorescence of Aβ(25-35) (Aβ(25-35)): neither a positive nor a negative effect
- effect on Aβ(1-39) fibril morphology (electron micrographs) (Aβ(1-39) [9]): did not prevent fibril formation but did appear to reduce the average length of fibrils, and increase the extent of fibril entanglement
- protection against Aβ(1-39) toxicity (PC-12 cells [10]): intermediate in protective effect
- effect on toxicity of Aβ(25-35) (PC-12 cells [11]): no effect

Molecule: KKLVFFA
- interaction with Aβ (Aβ [12]): interacts with the homologous sequence in Aβ

Molecule: FFAEDVG [19-25, FFAEDVG]
- Soluble [2]: yes
